Five molecules from patent US20100204141A1, “USE OF BPP-B AS A THERAPEUTIC AGENT” (priority 2007, published 2010) can be followed below.

One data set relates to CEM-SS cells. Briefly: Cytotoxicity (MTS cell viability) in the HIV-1 assay. The following applies: CEM-SS cells; test peptide 10 micrograms per ml; MTS.
A further data set relates to HIV-1IIIB. Briefly: HIV-1 antiviral assay (CPE reduction, MTS) in CEM-SS cells. The following applies: test peptide 10 micrograms per ml, 6 days post-infection.
The subject of the next data set is HCMV strain AD169. Nature of the data set: HCMV plaque reduction assay in MRC-5 cells. Conditions: HCMV in MRC-5 cells; peptide 10 micrograms per ml; 7-10 days. On the technique in general: Plaques are areas of infected cells; plaque reduction assays count them against a control.
Another data set concerns MRC-5 cells. Briefly: Cytotoxicity testing in MRC-5 cells (CellTiter 96). The format is cell-based, human. Conditions: 6 days incubation. The procedure:
(§1) For cytotoxicity testing, MRC-5 cells were seeded at 2,500 cells/well in 96 well plates using growth medium. […] The following day, peptide was added and tested in duplicates. After a 6 days incubation period, cell viability was measured using CellTiter 96 Solution (Promega). Plates were incubated for additional 4 hours at 37° C.

The nature of data set [1]: Cytotoxicity (MTS cell viability) in the HIV-1 assay. Conditions: human, CEM-SS cells (uninfected drug cytotoxicity wells).
Data set [2] is described as follows: Cytotoxicity (dye uptake cell viability) in the HBV assay. The format is cell-based. The following applies: human, HepG2-2.2.15 cells (stable line containing HBV ayw genome), test peptide 10 micrograms per ml.
The next data set deals with MRSA. Briefly: Methicillin Resistant Staphylococcus Aureus (MRSA) assay. The following applies: MRSA growth; peptide 10 micrograms per ml. The class given is cell-based. The procedure: (§2) The antibacterial assay was conducted using clear, U-bottom 96-well microtiter plates. Cation-adjusted Mueller-Hinton Broth (MHB) was used for testing MRSA. The peptide of the invention (0.1 ml of each—10 micrograms per ml—) was dispensed into wells in duplicate. Then the wells were inoculated with 5×10^5 CFU/mL MRSA in 0.1 ml volume. For control purposes, each plate included 4 wells containing media without bacterial inoculum and 4 wells containing medium with inoculum but without peptide. The plates were incubated for 12 h at 37° C., and read visually 18-24 hours post-incubation. Growth control of MRSA was examined first to determine adequacy of media preparations and growth conditions. Acceptable growth is defined as ≧2 mm wide button of cells at the bottom of each sample well, or obvious turbidity in the culture supernatant. Test wells were examined and scored as positive/negative for activity. A positive score for activity is based on complete inhibition of macroscopic growth of the test MRSA.

The test system of a further data set is Streptococcus pneumoniae. Briefly: Streptococcus pneumoniae assay. The class given is cell-based. Conditions: Streptococcus pneumoniae growth; peptide 10 micrograms per ml. The protocol: as §2, with “Streptococcus pneumoniae.” for “MRSA.”, “Streptococcus pneumoniae” for “MRSA”
Another data set concerns Pseudomonas aeruginosa. Briefly: Pseudomonas aeruginosa assay. The following applies: Pseudomonas aeruginosa growth; peptide 10 micrograms per ml. The format is cell-based. The protocol:
as §2, with “Pseudomonas aeruginosa.” for “MRSA.”, “Pseudomonas aeruginosa” for “MRSA”

Data set [3] can be described thus: Cytotoxicity testing in MRC-5 cells (CellTiter 96). The class given is cell-based, human. The following applies: human, MRC-5 cells (embryonal lung fibroblasts), 6 days incubation, read-out: % Cell viability. The procedure:
as §1

For a further data set, the system named is HepG2-2.2.15 cells. Briefly: Cytotoxicity (dye uptake cell viability) in the HBV assay. The format is cell-based. Conditions: test peptide 10 micrograms per ml.

As a reminder, the viability is the share of living cells, or the viability signal relative to a control. The % inhibition is the relative decrease from the control value, in per cent. Read a low % inhibition as a weak effect.

Molecules are shown by their SMILES. Square brackets hold non-standard residues; d marks the D form. Peptide text beside a SMILES is read from it. pGlu = O=C1CC[C@@H](C(=O)O)N1

For `CC(C)(C)NC(=O)[C@@H]1CN(Cc2cccnc2)CCN1C[C@@H](O)C[C@@H](Cc1ccccc1)C(=O)N[C@H]1c2ccccc2C[C@H]1O` [Indinavir], in the data set on CEM-SS cells, the “% Cell viability” value is reported as 93%. In addition, the “% CPE reduction in HIV-1 infected CEM-SS cells” value with HIV-1IIIB was determined as 100%.

As to `Nc1nc(O)c2ncn(COC(CO)CO)c2n1` [Ganciclovir], the “% plaque reduction” value with HCMV strain AD169 is reported as 100%. Besides, in the data set on MRC-5 cells, the “% Cell viability” value is reported as 100%.

As for `Cc1cn([C@H]2C[C@H](N=[N+]=[N-])[C@@H](CO)O2)c(=O)[nH]c1=O` [AZT], the “% Cell viability” value with CEM-SS cells turned out to be 97%. In addition, the “% CPE reduction in HIV-1 infected CEM-SS cells” value in the data set with HIV-1IIIB is on record as 99%.

The molecule `CC[C@H](C)[C@H](NC(=O)[C@H](CCCCN)NC(=O)[C@@H]1CCCN1C(=O)[C@H](CCCNC(=N)N)NC(=O)[C@@H]1CCCN1C(=O)[C@@H]1CCCN1C(=O)[C@H](CC(C)C)NC(=O)CNC(=O)[C@@H]1CCC(=O)N1)C(=O)N1CCC[C@H]1C(=O)N1CCC[C@H]1C(=O)O` [Bradykinin potentiator B, Pyr-Gly-Leu-Pro-Pro-Arg-Pro-Lys-Ile-Pro-Pro-OH] ([pGlu]GLPPRPKIPP-OH) registered a viability at 10 micrograms per ml in data set [1] of 100%. In [2], this molecule registered a viability at 144 h, 10 micrograms per ml of 100%. Moreover, the “% inhibition” value in the data set with MRSA, in the data set on Streptococcus pneumoniae and in the data set with Pseudomonas aeruginosa was 0.0% in each case. The viability at 144 h in data set [3] turned out to be 100%.

For `Nc1ccn([C@@H]2CS[C@H](CO)O2)c(=O)n1` [3TC], the “% Cell viability” value with HepG2-2.2.15 cells was determined as 95.8%.
